In patent publication US5814634A, “Alkylenediamine derivative anti-ulcer drug and antibacterial drug” (Shiseido Co. Ltd., priority 1996, dated 1998):

Tests used:
[1] = tested on: isolated gastric fundic gland; experiment: CAP: Acid Secretion Inhibition Test In Vitro ([14C]-aminopyrine uptake); type: cell-based, rabbit (male Japanese White); conditions: Oryctolagus cuniculus, 40 min; 10^-5 M compound, 10^-5 M histamine, rabbit isolated gastric fundic gland, 37° C., 40 minutes; read-out: CAP: acid secretion inhibitory rate
Method in brief: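 Fundic gland suspension (1.6×10^6 cells/ml in HEPES nutrient buffer) was stimulated with histamine 10^-5 M plus test compound 10^-5 M (final) and [14C]-aminopyrine 0.05 μCi/ml, then shaken 40 min at 37 °C. Pellet and supernatant were scintillation-counted to give the NaSCN-corrected specific aminopyrine accumulation ratio, in duplicate.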

in vitro = conditions: rabbit, gastric mucosal cells
Male Slc:ICR mice = tested on: Male Slc:ICR mice; parameters: species or system mouse (male Slc:ICR); conditions: mouse, in vivo
Method in brief: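 Fasted 5-week-old male mice (3 to 5 per group) received a single oral 2,000 mg/kg dose in 0.5% sodium carboxymethyl cellulose, with vehicle controls. Behavior and body weight were followed daily and organs examined at death or one week post-dose. Toxicity was scored 1-5 from mortality and behavioral or organ findings.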

Row | Structure (SMILES) | inhibition at 10 µM [1] | cytotoxicity at 4 h, 100 µM (in vitro) | AT: toxicity at single dose, 5 levels (Male Slc:ICR mice)
1 | CC(C)=CCC/C(C)=C/COc1ccc(C(=O)NCCN2CCOCC2)cc1 [Example 31] | 99% | 15% | 5
2 | CC(C)=CCOc1ccc(C(=O)NCCN2CCOCC2)cc1OCC=C(C)C [Example 35] | 100% | -17% | 4
3 | CC(C)=CCOc1ccc(C(=O)NCCN2CCOCC2)cc1 [Example 28] | 88% | -39% | 3
